In patent publication US8821836B2, “SPARC binding peptides and uses thereof” (Abraxis BioScience, LLC, priority 2008, dated 2014):
Entries after “also recorded” stand apart in the source; their conditions may differ.

Legend:
[1] = tested on: sections of a human brain tumor (SPARC expressing tumor); experiment: Immunohistochemical staining of tumor sections; settings: IHC, FIGS. 10 and 11
Text: FIGS. 10 and 11 show the co-localization of SPARC (as indicated by immunohistochemical (IHC) staining with an anti-SPARC antibody) and the binding of PD 15 and PD 21 in sections of a human brain tumor (which have been epitope tagged for IHC staining.).

[2] = target: T1, SPARC (Homo sapiens, UniProt P09486); experiment: Concentration dependent binding ELISA; settings: for binding to SPARC compared with anti-SPARC antibody: ELISA, FIG. 9
T1 sequence (P09486 18-303): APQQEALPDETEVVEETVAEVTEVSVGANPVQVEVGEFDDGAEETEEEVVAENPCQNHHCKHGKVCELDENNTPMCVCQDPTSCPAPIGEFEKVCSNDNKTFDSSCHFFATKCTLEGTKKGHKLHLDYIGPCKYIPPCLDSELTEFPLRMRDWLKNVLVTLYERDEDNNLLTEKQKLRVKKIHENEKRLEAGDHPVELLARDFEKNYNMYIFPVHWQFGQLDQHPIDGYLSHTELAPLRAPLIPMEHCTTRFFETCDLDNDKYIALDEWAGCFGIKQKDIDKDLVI

[3] = tested on: non-SPARC proteins in 5,000 proteins on the array; experiment: Protein microarray analysis (Invitrogen ProtoArray v.3), off target binding
Text: FIG. 8 depicts the Protoarray used to define off target binding of PD 15 and PD21.

[4] = tested on: PC3 prostatecarcinoma xenograft; experiment: Antitumor activity in PC3 xenograft model; type: in vivo, nude mouse; settings: for tumor growth inhibition: FIG. 13
Protocol: FIG. 13 depicts the antitumor activity of PD 15 and PD 21 in a human prostate cancer/nude mouse model system.
The PD 15 and PD 21-Fc fusion proteins were assayed for antitumor activity in a murine-human PC3 prostatecarcinoma xenograft model.

[5] = tested on: HT29 colon xenograft; experiment: Antitumor activity in HT29 xenograft model; type: in vivo, mouse; settings: FIG. 14

Substance: YTRLHHWIPPQR [PD 15]
- binding to / staining of tumor tissue [1]: binding
- affinity for SPARC, PD 15 versus PD 21 ([2]; ELISA and IHC experiments): higher affinity for SPARC than PD 21
- binding to SPARC compared with anti-SPARC antibody [2]: only slightly weaker than that of an anti-SPARC antibody
- cross reactivity with non-SPARC proteins [3]: only minimal cross reactivity
- antitumor activity, comparison [4]: better antitumor activity than PD21

Substance: PD 21-Fc: fusion protein of SPARC binding peptide PD 21 with human IgG1 Fc domain (pFUSE-hIgG1-Fc2 vector) (VTPLLKFRALSS)
- tumor growth inhibition [4]: statistically significant tumor growth inhibition

Substance: PD 15-Fc: fusion protein of SPARC binding peptide PD 15 with human IgG1 Fc domain (pFUSE-hIgG1-Fc2 vector) (YTRLHHWIPPQR)
- tumor growth inhibition [4]: statistically significant tumor growth inhibition

Substance: VTPLLKFRALSS [PD 21]
- binding to / staining of tumor tissue [1]: binding
- binding to SPARC compared with anti-SPARC antibody [2]: only slightly weaker than that of an anti-SPARC antibody
- cross reactivity with non-SPARC proteins [3]: only minimal cross reactivity
- antitumor activity, comparison [5]: better antitumor activity than PD 15; also recorded: activity closely equivalent to Abraxane
